For one test, the system named is bovine sperm. The test can be described thus: Bovine sperm post-thaw viability (SYBR 14 / propidium iodide flow cytometry). The class given is cell-based, Holstein bulls. How it is done:
Sperm from three collections from each of 6 different bulls were frozen in the presence of MTG at the concentrations indicated on the x-axes. For each collection, two sets of three straws each were created and analyzed twice for sperm viability. Differences in sperm cell viability among the treatments were determined using analysis of variance on arcsine transformed percents and preplanned comparisons to the control of no MTG using Dunnett's method. Panel A illustrates the mean and standard errors for the 6 bulls while panels B though G illustrate the percent of viable sperm for the individuals. […]
Semen was collected via an artificial vagina from 6 different Holstein bulls over 3 different days. […] Antibiotics were added to the neat semen and initial volume and concentration were determined using a graduated cylinder and spectrophotometry. […]
(§1) For the examination, 6 straws per treatment per collection were thawed in a 37° C. water bath for at least 60 sec. For each treatment within a collection, two pools of semen were created and analyzed by combining the contents of three straws. […] The percent of motile sperm was determined on 4 different fields within each of 2 separate chambers. For viability the sperm samples were diluted 1:100 in PBS and stained with SYBR 14 ([…]) and propidium iodide (12 μM About 10,000 cells were counted using the Partec Flomax Flow Cytometer (Ft. Collins, Colo.).
In general terms: Flow cytometry measures light scatter and fluorescence of single cells or particles in a stream.

The next test has as its system Rat Sperm. The test can be described thus: Rat sperm motility after cryopreservation and thawing. Conditions: addition of 477 μM MTG to lactose/egg yolk media. The class given is cell-based, LEW/SsNHsd rat. How it is done:
The epididymides and vas deferentia were collected from one 33 week old LEW/SsNHsd rat (Harlan, Indianapolis, Ind.). Incisions were made in the tissue and the sperm were allowed to swim out, into 2 mL of a solution containing 8% lactose [w/v] (Sigma Aldrich; St. Louis, Mo.) and 23% egg yolk [v/v] from fresh eggs in distilled water (Invitrogen; Carlsbad, Calif.) for 10 min. The sperm suspension was then split with half being placed into the lactose/egg yolk solution and the other half being suspended in lactose/egg yolk solution containing 954 micromol MTG in 15 mL conical tubes. […] The 15 mL conical tubes containing the sperm samples were placed into a beaker containing ˜150 mL of 15° C. water for 10 min. […]
The sperm were loaded into 250 μL French straws (IMV; Maple Grove, Minn.; cat# AAA201), which were then sealed with an instantaneous heat sealer (model AIE-305HD; American International Electric; Whittier, Calif.) and 5 of them loaded into cassettes (Zanders Medical Supplies; Vero Beach, Fla.). […] The sperm were diluted 1:50 in Cooks Mouse Vitro Fert (Cook's; Spencer, Ind.) and motility was evaluated by counting at least 5 different fields using a video monitor connected to a microscope using a magnification of 40×. […]

In another test the test system is bull sperm. The test can be described thus: Bovine sperm post-thaw motility (IVOS). The class given is cell-based, Holstein bulls. Conditions: MTG 0, 100, 500, 1000 or 5000 μM in Triladyl egg yolk extender containing glycerol; 0 and 3 hr. How it is done: Semen was collected via an artificial vagina from 6 different Holstein bulls over 3 different days. The bulls were selected such that three produce sperm with good consistent freezing quality and three produce sperm that respond to cryopreservation with poorer consistency. Antibiotics were added to the neat semen and initial volume and concentration were determined using a graduated cylinder and spectrophotometry. From each collection, 5 different 500 μL aliquots of semen were extended with 1.5 mL of Triladyl egg yolk extender (Minitube; Verona, Wis.) containing glycerol. Subsequently, 2 mL of the same extender containing no MTG, 200, 1000, 2000 or 10,000 μM MTG was added to the extended semen to yield the final concentrations for MTG of 0, 100, 500, 1000 or 5000 μM. […]
as §1

Molecules are shown by their SMILES. “Also recorded” adds a separate entry of the source.

Regarding `OCC(O)CS` (stereo not shown) [MTG, monothioglycerol], in the test with bovine sperm (MTG 0, 100, 500, 1000 or 5000 μM in egg yolk extender containing glycerol, 6 bulls, FIG. 5), the “post-thaw viability of bovine sperm” value is given as “not negatively influenced; also recorded: enhances post-thaw viability”. Also, in the test on bovine sperm (bovine sperm, 3 bulls with slight effect), the increase of viability result is listed as “slight effect”. The “rat sperm motility after thawing, effect in words” value in the test with Rat Sperm is on record as “increased motility”. For the same molecule, in the test with bull sperm, the “overall post-thaw motility of bull sperm” value was “no ill effects”.

For the origin of these results see patent US8420307B2, “Sperm cryoprotective media” (The Jackson Laboratory, priority 2006, dated 2013).
